The results in this text go back to article PMC11855827, “High-Throughput Screening of Five Compound Libraries for Anthelmintic Activity and Toxicity Leads to the Discovery of Two Flavonoid Compounds” (International Journal of Molecular Sciences, 2025).

The assay concerns C. elegans. In words: microbe, parasite or virus in culture. The conditions noted are these: Caenorhabditis elegans.
The mark [1] stands for this setting: 0 h, read-out: Percentage of motility inhibition 0 h, Table S2, C. elegans SS assay, 110 μM, 0 h, averages of 4 data points.
[2] abbreviates: 24 h, read-out: Percentage of motility inhibition 24 h, Table S2, C. elegans SS assay, 110 μM, 24 h, averages of 4 data points.
[3] abbreviates: 0 h, read-out: Percentage of motility inhibition 0 h.
The mark [4] stands for this setting: 24 h, read-out: Percentage of motility inhibition 24 h.

Read-outs that look alike come from different tables or passages of the source.

As a reminder, the inhibition is the drop in the measured response relative to a control, in per cent. Turning to `CC(=O)O[C@H]1C[C@H](O[C@H]2[C@@H](O)C[C@H](O[C@H]3[C@@H](O)C[C@H](O[C@H]4CC[C@@]5(C)[C@H](CC[C@@H]6[C@@H]5C[C@@H](O)[C@]5(C)[C@@H](C7=CC(=O)OC7)CC[C@]65O)C4)O[C@@H]3C)O[C@@H]2C)O[C@H](C)[C@H]1O[C@@H]1O[C@H](CO)[C@@H](O)[C@H](O)[C@H]1O` [Lanatoside C], the inhibition at 110 µM amounted to 0% under setting [1] and 2% under setting [2]. Taken in the same sequence, the figures for `CC[C@@H](C(=O)[C@@H](C)[C@@H](O)[C@H](C)CCc1ccc(C)c(O)c1C(=O)O)[C@H]1O[C@](CC)([C@H]2CC[C@](O)(CC)[C@H](C)O2)C[C@@H]1C` [Lasalocid] were 23% and 21%.

Consider `COC(=O)N[C@H](C(=O)N1CC2(CC2)C[C@H]1c1nc(-c2ccc3c(c2)C(F)(F)c2cc(-c4ccc5[nH]c([C@@H]6[C@H]7CC[C@H](C7)N6C(=O)[C@@H](NC(=O)OC)C(C)C)nc5c4)ccc2-3)c[nH]1)C(C)C` [Ledipasvir], for which the inhibition at 110 µM by setting is: under setting [1], 25%; under setting [2], 1%.

Take `COc1cc(C(=O)OCCCCNC(=N)N)cc(OC)c1O` [Leonurine]: the inhibition at 110 µM under setting [1] is 0% and the inhibition at 110 µM under setting [2] was determined as 0%.

Take `Cc1c(C)[n+](Cc2ccccc2)cn1Cc1ccccc1` [Lepidiline A]: the inhibition at 110 µM under setting [1] was found to be 5% and the inhibition at 110 µM under setting [2] worked out at 14%. For `CCc1nn(CCO)c(CC)c1Oc1cc(C#N)cc(C#N)c1` [Lersivirine], the inhibition at 110 µM under setting [1] came to 18% and the inhibition at 110 µM under setting [2] stood at 8%. On the same counts, the results for `COc1cccc(N2CCN(C3=Nc4c(F)cccc4[C@H](CC(=O)O)N3c3cc(C(F)(F)F)ccc3OC)CC2)c1` [Letermovir] are 24% and 0%. Consider `N#Cc1ccc(C(c2ccc(C#N)cc2)n2cncn2)cc1` [Letrozole], for which the inhibition at 110 µM is, setting by setting: under setting [1], 0%; under setting [2], 0%.

As to `C[C@H]1COc2c(N3CCN(C)CC3)c(F)cc3c(=O)c(C(=O)O)cn1c23` [Levofloxacin], the inhibition at 110 µM reads like this: under setting [1], 9%; under setting [2], 10%. On the same counts, the results for `COc1c(/C=C/C(=O)c2ccc(O)c(CC=C(C)C)c2)ccc(O)c1O` [Licochal cone D] are 15% and 0%.

On to `C=C(C)[C@H](C)c1cc(/C=C/C(=O)c2ccc(O)cc2)c(OC)cc1O` [Licochal cone E], for which the inhibition at 110 µM turned out to be 5% under setting [1] and 0% under setting [2]. Take `Cc1nc(C)c(C)nc1C` [Ligustrazine]: the inhibition at 110 µM under setting [1] stood at 0% and the inhibition at 110 µM under setting [2] was determined as 2%. In the case of `C=CC(C)(O)CCC=C(C)C` (stereo not drawn) [Linalool], the inhibition at 110 µM under setting [3] is 14% and the inhibition at 110 µM under setting [4] was 20%. For `C/C1=C\CCC2=C[C@@H](OC2=O)c2c(C)coc2C1` [Linderalactone], the inhibition at 110 µM amounted to 0% under setting [1] and 45% under setting [2]. On the same counts, the results for `C/C1=C\CC[C@]23O[C@H]2[C@@H](OC3=O)c2c(C)coc2C1` [Linderane] are 5% and 16%. Taken in the same sequence, the figures for `O=C1C[C@@H](c2ccc(O[C@@H]3O[C@H](CO)[C@@H](O)[C@H](O)[C@H]3O)cc2)Oc2cc(O)ccc21` [Liquiriti n] were 45% and 14%. Taken in the same sequence, the figures for `C[C@@H]1[C@H]2[C@H](O[C@@H]3O[C@H](CO)[C@@H](O)[C@H](O)[C@H]3O)OC=C(C(=O)O)[C@H]2C[C@@H]1O` [Loganic acid] were 28% and 29%. `COC(=O)C1=CO[C@@H](O[C@@H]2O[C@H](CO)[C@@H](O)[C@H](O)[C@H]2O)[C@@H]2[C@@H](C)[C@@H](O)C[C@H]12` [Loganin]: the inhibition at 110 µM runs as follows: under setting [1], 11%; under setting [2], 15%.

`C[C@@H]1O[C@@H](O[C@H]2[C@H](Oc3cc(O)c4c(=O)cc(-c5ccc(O)c(O)c5)oc4c3)O[C@H](CO)[C@@H](O)[C@@H]2O)[C@H](O)[C@H](O)[C@H]1O` [Lonicerin]: the inhibition at 110 µM under setting [1] worked out at 2% and the inhibition at 110 µM under setting [2] came out at 2%.

For `Cc1cccc(C)c1OCC(=O)N[C@@H](Cc1ccccc1)[C@@H](O)C[C@H](Cc1ccccc1)NC(=O)[C@H](C(C)C)N1CCCNC1=O` [Lopinavir], the inhibition at 110 µM came out at 17% under setting [1] and 14% under setting [2]. Regarding `N#C/C(=C1/SC[C@@H](c2ccc(Cl)cc2Cl)S1)n1ccnc1` [Luliconazole], the inhibition at 110 µM runs as follows: under setting [1], 3%; under setting [2], 7%. In the case of `CCCCN(CCCC)CC(O)c1cc(Cl)cc2c1-c1ccc(Cl)cc1/C2=C/c1ccc(Cl)cc1` (stereo not drawn) [Lumefantrine], the inhibition at 110 µM runs as follows: under setting [1], 0%; under setting [2], 0%.

In the case of `C=C(C)[C@@H]1CC[C@]2(C)CC[C@]3(C)[C@H](CC[C@@H]4[C@@]5(C)CCC(=O)C(C)(C)[C@@H]5CC[C@]43C)[C@@H]12` [Lupenone], the inhibition at 110 µM came out at 25% under setting [1] and 17% under setting [2]. For the compound `C=C(C)[C@@H]1CC[C@]2(C)CC[C@]3(C)[C@H](CC[C@@H]4[C@@]5(C)CC[C@H](O)C(C)(C)[C@@H]5CC[C@]43C)[C@@H]12` [Lupeol], the inhibition at 110 µM by setting is: under setting [1], 0%; under setting [2], 0%.

On to `CC1=C[C@H](O)CC(C)(C)[C@H]1/C=C/C(C)=C/C=C/C(C)=C/C=C/C=C(C)/C=C/C=C(C)/C=C/C1=C(C)C[C@@H](O)CC1(C)C` [Lutein], for which the inhibition at 110 µM runs as follows: under setting [3], 13%; under setting [4], 0%. With `O=c1cc(-c2ccc(O)c(O)c2)oc2cc(O)cc(O)c12` [Luteolin], the inhibition at 110 µM by setting is: under setting [1], 4%; under setting [2], 0%. Consider `COc1ccc2c3c1O[C@H]1C[C@@H](O)CC[C@]31CCN(C)C2` [Lycoramine], for which the inhibition at 110 µM by setting is: under setting [1], 0%; under setting [2], 0%. Consider `O[C@H]1[C@H]2c3cc4c(cc3CN3CCC(=C[C@@H]1O)[C@H]23)OCO4` [Lycorine], for which the inhibition at 110 µM is, setting by setting: under setting [1], 34%; under setting [2], 0%. `CN1[C@@H]2CC[C@H]1C[C@@H](OC(=O)[C@H](CO)c1ccccc1)C2` [L‐Hyoscyamine]: the inhibition at 110 µM was 16% under setting [3] and 12% under setting [4]. Turning to `C[C@H]1[C@H](C)CC[C@]2(C(=O)O)CC[C@]3(C)C(=CC[C@@H]4[C@@]5(C)C[C@@H](O)[C@H](O)[C@@](C)(CO)[C@@H]5[C@H](O)C[C@]43C)[C@H]12` [Madecassic acid], the inhibition at 110 µM came out at 1% under setting [1] and 31% under setting [2].

Turning to `C=CCc1ccc(O)c(-c2cc(CC=C)ccc2O)c1` [Magnolol], the inhibition at 110 µM stood at 0% under setting [1] and 14% under setting [2].

Turning to `O=C1C=CC(=O)N1` [Maleimide], the inhibition at 110 µM under setting [1] worked out at 25% and the inhibition at 110 µM under setting [2] stood at 32%. In the case of `O=C(O)CC(O)C(=O)O` (stereo not drawn) [Malic acid], the inhibition at 110 µM under setting [1] turned out to be 2% and the inhibition at 110 µM under setting [2] was determined as 14%.

As to `C=C1[C@@H]2CC[C@@H]3[C@](C2)(C(=O)[C@@H](O)[C@@H]2C(C)(C)[C@H]4CC(=O)[C@@]32CO4)[C@@H]1OC(C)=O` [Maoecrystal A], the inhibition at 110 µM under setting [1] is 7% and the inhibition at 110 µM under setting [2] turned out to be 2%. Consider `CN1CCN(c2c(F)cc3c(=O)c(C(=O)O)cn4c3c2OCN4C)CC1` [Marbofloxacin], for which the inhibition at 110 µM was 23% under setting [1] and 9% under setting [2]. Taken in the same sequence, the figures for `CC1(C)CC[C@]2(C(=O)O)CC[C@]3(C)C(=CC[C@@H]4[C@@]5(C)C[C@@H](O)[C@H](O)C(C)(C)[C@@H]5CC[C@]43C)[C@@H]2C1` [Maslinic acid] were 0% and 5%. On the same counts, the results for `C[C@H](Cc1ccc(O)c(O)c1)[C@@H](C)Cc1ccc(O)c(O)c1` [Masoprocol] are 7% and 17%. Regarding `O=C1CCC[C@@H]2[C@H]3CCCN4CCC[C@@H](CN12)[C@@H]34` [Matrine], under setting [2], the inhibition at 110 µM was 2%. Regarding `COc1cc2cc(c1Cl)N(C)C(=O)CC(O)C1(C)OC1C(C)C1CC(O)(NC(=O)O1)C(OC)/C=C/C=C(\C)C2` (stereo not drawn) [Maytansinol], the inhibition at 110 µM is, setting by setting: under setting [1], 0%; under setting [2], 0%.

With `COC(=O)Nc1nc2ccc(C(=O)c3ccccc3)cc2[nH]1` [Mebendazole], the inhibition at 110 µM reads like this: under setting [1], 18%; under setting [2], 37%.

Take `CC(=O)O[C@]1(C(C)=O)CC[C@H]2[C@@H]3C[C@H](C)C4=CC(=O)CC[C@]4(C)[C@H]3CC[C@@]21C` [Medroxyprogesterone acetate]: the inhibition at 110 µM was 11% under setting [1] and 6% under setting [2]. Take `CN1C(=O)/C(=C2/C(=O)Nc3ccccc32)c2ccccc21` [Meisoindigo]: the inhibition at 110 µM stood at 0% under setting [1] and 0% under setting [2]. For `COc1ccc2[nH]cc(CCNC(C)=O)c2c1` [Melatonin], the inhibition at 110 µM was 66% under setting [1] and 24% under setting [2]. On to `CC1=CC(=O)c2ccccc2C1=O` [Menadione], for which the inhibition at 110 µM stood at 0% under setting [1] and 0% under setting [2]. On to `CC(C)[C@@H]1CC[C@@H](C)CC1=O` [Menthone], for which the inhibition at 110 µM under setting [1] is 17% and the inhibition at 110 µM under setting [2] turned out to be 17%.

In the case of `COc1ccc(O)cc1` [Mequinol], the inhibition at 110 µM is 16% under setting [1] and 11% under setting [2].

As to `COc1c2occc2cc2ccc(=O)oc12` [Methoxsalen], the inhibition at 110 µM came out at 23% under setting [1] and 5% under setting [2]. On to `COC(=O)c1ccccc1O` [Methyl Salicylate], for which the inhibition at 110 µM is, setting by setting: under setting [1], 21%; under setting [2], 12%.

Turning to `COC(=O)[C@]12CCCC(C)(C)[C@@H]1CCc1cc(C(C)C)c(O)c(O)c12` [Methyl carnosate], the inhibition at 110 µM came out at 0% under setting [1] and 63% under setting [2]. Regarding `COC(=O)c1cccnc1` [Methyl nicotinate], the inhibition at 110 µM was 0% under setting [3] and 0% under setting [4].
